Data published in patent US5714469A, “Method of treating sepsis” (priority 1994, dated 1998).

test system: clinical isolate of E. coli isolated from sputum; assay: Antibiotic sensitivity by disc-agar diffusion technique; assay type: cell-based
Description: A clinical isolate of E. coli isolated from sputum was utilized. […] The organism was animal passed in mice and subsequently recovered and plated onto MacConkey's agar. The reisolated organisms were grown overnight in brain-heart infusion broth, and then stored frozen at -70° C. The inoculate the fibrin clot, organisms from thawed stocks were inoculated into brainheart infusion broth and incubated overnight on a rotary shaker (120 rpm) an 37° C. The E. coli was harvested by centrifugation, washed 3X and finally resuspended in normal saline. The number or organisms was quantified by turbidimentry, and the concentration adjusted with normal saline. All inoculum sizes were based on viable counts determined by scoring colony forming units on MacConkeys agar.

**Q.** With `CC1(C)S[C@@H]2[C@H](NC(=O)[C@H](N)c3ccccc3)C(=O)N2[C@H]1C(=O)O` [ampicillin] as the compound, how does the “antibiotic sensitivity of the E. coli isolate” value (“antibiotic sensitivity” for short) read?
**A.** Its value is “sensitive”.

**Q.** Which “antibiotic sensitivity” value does the source give for `NC[C@H]1O[C@H](O[C@H]2[C@H](O)[C@@H](O[C@H]3O[C@H](CO)[C@@H](O)[C@H](N)[C@H]3O)[C@H](N)C[C@@H]2N)[C@H](O)[C@@H](O)[C@@H]1O` [kanamycin] here?
**A.** Its value is “sensitive”.

**Q.** `CC1(C)S[C@@H]2[C@H](NC(=O)Cc3ccccc3)C(=O)N2[C@H]1C(=O)O` [penicillin G] was tested. Which “antibiotic sensitivity” value did it give?
**A.** Its value is “resistant”.

**Q.** `O=C(N[C@H](CO)[C@H](O)c1ccc([N+](=O)[O-])cc1)C(Cl)Cl` [chloramphenicol] was tested. Which “antibiotic sensitivity” value did it give?
**A.** The value was “sensitive”.

**Q.** How did the “antibiotic sensitivity” value turn out when `CN[C@H](CC(C)C)C(=O)N[C@H]1C(=O)N[C@@H](CC(N)=O)C(=O)N[C@H]2C(=O)N[C@H]3C(=O)N[C@H](C(=O)N[C@H](C(=O)O)c4cc(O)cc(O)c4-c4cc3ccc4O)[C@H](O)c3ccc(c(Cl)c3)Oc3cc2cc(c3O[C@@H]2O[C@H](CO)[C@@H](O)[C@H](O)[C@H]2O[C@H]2C[C@](C)(N)[C@H](O)[C@H](C)O2)Oc2ccc(cc2Cl)[C@H]1O` [vancomycin] was run?
**A.** The value was “resistant”.

**Q.** With gentamicin as the compound, how does the “antibiotic sensitivity” value read?
**A.** The value was “sensitive”.

**Q.** `CC[C@H]1OC(=O)[C@H](C)[C@@H](O[C@H]2C[C@@](C)(OC)[C@@H](O)[C@H](C)O2)[C@H](C)[C@@H](O[C@@H]2O[C@H](C)C[C@H](N(C)C)[C@H]2O)[C@](C)(O)C[C@@H](C)C(=O)[C@H](C)[C@@H](O)[C@]1(C)O` [erythromycin] was tested. Which “antibiotic sensitivity” value did it give?
**A.** Its value is “resistant”.

**Q.** How did the “antibiotic sensitivity” value turn out when `CN(C)[C@@H]1C(O)=C(C(N)=O)C(=O)[C@@]2(O)C(O)=C3C(=O)c4c(O)cccc4[C@@](C)(O)[C@H]3C[C@@H]12` [tetracycline] was run?
**A.** Its value is “sensitive”.

**Q.** How did the “antibiotic sensitivity” value turn out when `CC(=O)OCC1=C(C(=O)O)N2C(=O)[C@@H](NC(=O)Cc3cccs3)[C@H]2SC1` [cephalothin] was run?
**A.** The value was “sensitive”.

**Q.** With trimethoprin/sulfamethoxazole as the compound, how does the “antibiotic sensitivity” value read?
**A.** Its value is “sensitive”.
